Measurements from US5786447A, “Opioid peptide analogs” (Astra AB, priority 1994, dated 1998).
Positions of bridges follow the written chain, without caps; N, C: chain ends. Non-standard residues stand in square brackets, D forms with d. Residues, ends and D or L forms follow the SMILES beside them. 2Nal = N[C@@H](Cc1ccc2ccccc2c1)C(=O)O; Dmt = Cc1cc(O)cc(C)c1C[C@H](N)C(=O)O; dOrn = NCCC[C@@H](N)C(=O)O; NMeAib = CNC(C)(C)C(=O)O; Sar = CNCC(=O)O

Experiments:
[1] = target: μ opioid receptors (Cavia porcellus, UniProt P97266); assay: GPI assay: inhibition of electrically evoked contractions of the guinea pig ileum; format: cell-based; conditions: means of 3-6 determinations ± SEM, normalized to [Leu5]enkephalin standard, read-out: IC50 in the GPI assay (agonist potency)
Chain of μ opioid receptors (P97266 whole entry, looked up): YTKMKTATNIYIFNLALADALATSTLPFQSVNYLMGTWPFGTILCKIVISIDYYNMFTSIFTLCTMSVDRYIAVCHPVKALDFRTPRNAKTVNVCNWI
Procedure: (§1) a) Bioassays based on inhibition of electrically evoked contractions of the mouse vas deferens (MVD) and of the guinea pig ileum (GPI). In the GPI assay the opioid effect is primarily mediated by μ opioid receptors, whereas in the MVD assay the inhibition of the contractions is mostly due to interaction with δ opioid receptors.
(§2) The GPI and MVD bioassays were carried out as reported in P. W. Schiller et al., Biochem. Biophys. Res. Commun 85, 1332-1338 (1978) and J. Di Maio et al., J. Med. Chem. 25, 1432-1438 (1982). A log dose-response curve was determined with [Leu^5 ] enkephalin as standard for each ileum and vas preparation, and IC50 values of the compounds being tested were normalized according to A. A. Waterfield et al., Eur. J. Pharmacol. 58, 11-18 (1979). Ke values for the cyclic β-casomorphin analogs with mixed μ agonist/δ antagonist properties (δ antagonist effect) were determined from the ratio of IC50 values (DR) obtained in the presence and absence of a fixed antagonist concentration (a) (Ke =a/(DR-1)) H. W. Kosterlitz & A. J. Watt, Br. J. Pharmacol. 33, 266-276 (1968). These determinations were made with the MVD assay, using three different δ-selective agonists ([Leu^5 ]enkephalin, DPDPE and [D-Ala^2]deltorphin I].

[2] = target: T1, δ opioid receptors (Mus musculus, UniProt P32300); assay: MVD assay: inhibition of electrically evoked contractions of the mouse vas deferens (δ antagonist Ke); format: cell-based; conditions: means of 3-8 determinations ± SEM; for Ke in the MVD assay, antagonist potency against DPDPE: δ agonist DPDPE; for Ke in the MVD assay, antagonist potency against [D-Ala2]deltorphin I: δ agonist [D-Ala2]deltorphin I
T1 construct: Bioassays Using Isolated Organ Preparations; from tissue; host or cells: isolated mouse vas deferens
T1 sequence (P32300 whole entry): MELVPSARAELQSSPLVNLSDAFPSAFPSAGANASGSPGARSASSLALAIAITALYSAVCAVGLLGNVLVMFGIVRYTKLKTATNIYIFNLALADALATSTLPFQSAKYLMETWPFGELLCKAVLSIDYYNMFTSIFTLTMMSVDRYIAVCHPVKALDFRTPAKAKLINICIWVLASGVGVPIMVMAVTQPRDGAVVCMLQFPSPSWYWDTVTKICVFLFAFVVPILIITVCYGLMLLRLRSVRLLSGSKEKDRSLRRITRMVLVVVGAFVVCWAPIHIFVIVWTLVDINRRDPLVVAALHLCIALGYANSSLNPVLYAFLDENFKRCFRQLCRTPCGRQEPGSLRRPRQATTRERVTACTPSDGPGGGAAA
Procedure: as §1, §2

[3] = target: T2, μ opioid receptor (Rattus norvegicus, UniProt P33535); assay: μ opioid receptor binding, displacement of [3H]DAMGO from rat brain membranes; conditions: [3H]DAMGO 0.7 nM, Cheng-Prusoff, means of three determinations ± SEM
T2 construct: from tissue; host or cells: rat brain membranes (cerebellum removed), Sprague-Dawley
T2 sequence (P33535 whole entry): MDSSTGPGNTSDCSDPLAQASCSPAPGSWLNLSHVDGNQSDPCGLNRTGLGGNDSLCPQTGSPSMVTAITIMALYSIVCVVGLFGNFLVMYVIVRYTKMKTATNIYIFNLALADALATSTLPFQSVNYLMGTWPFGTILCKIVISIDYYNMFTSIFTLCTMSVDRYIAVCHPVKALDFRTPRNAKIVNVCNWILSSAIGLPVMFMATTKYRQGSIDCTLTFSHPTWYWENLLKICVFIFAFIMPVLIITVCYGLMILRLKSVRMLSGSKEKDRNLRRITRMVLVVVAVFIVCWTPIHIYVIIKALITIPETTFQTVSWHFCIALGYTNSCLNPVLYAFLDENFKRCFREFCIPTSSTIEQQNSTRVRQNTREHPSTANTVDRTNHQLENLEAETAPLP
Excerpt: (§3) In the case of κ-ligands guinea pig brain homogenates were used, since the relative proportion of κ-binding sites is higher in guinea pig brain than in rat brain. The experimental procedure being used in our laboratory represents a modified version of the binding assay described by Paternak et al. (Mol. Pharmacol. 11 340-351, (1975)). Male Sprague-Dawley rats (300-350 g) from the Canadian Breeding Laboratories were decapitated and after removal of the cerebellum the brains were homogenized in 30 volumes of ice-cold standard buffer (50 mM Tris-HCl, pH 7.7). After centrifugation at 30,000×g for 30 min at 4° C. the membranes were reconstituted in the original volume of standard buffer and incubated for 30 min at 37° C. (to release bound endogenous ligands). […] The incubation was terminated by filtration through Whatman GF/B filters under vacuum at 4° C. Following two washings with 5 ml portions of ice-cold standard buffer the filters were transferred to scintillation vials and treated with 1 ml Protosol (New England Nuclear) for 30 min prior to the addition of 0.5 ml acetic acid and 10 ml Aquasol (New England Nuclear). After shaking for 30 min the vials were counted at an efficiency of 40-45%. All experiments were performed in duplicates and repeated at least three times. Specific binding of each of the three radioglands was defmed by performing incubations in the presence of cold DAMGO, DSLET and U69,563, respectively, at a concentration of 1 micromolar. Values of half-maximal inhibition (IC50) of specific binding were obtained graphically from semilogarithmic plots. From the measured IC50-values, binding inhibition constants (Ki) were then calculated based on Cheng and Prussoff's equation (Biochem. Pharmacol. 22, 3099-3102 (1973)). Ratios of the Ki -values in the μ-, δ- and κ-representative bindning assays are a measure of the receptor selectivity of the compound under investigation (e.g. Ki^δ/ Ki^μ indicated the selectivity for μ-receptors versus δ-receptors).

[4] = target: T3, δ opioid receptor (Rattus norvegicus, UniProt P33533); assay: δ opioid receptor binding, displacement of δ-selective radioligand from rat brain membranes; conditions: for Ki^δ/Ki^μ (selectivity for μ versus δ receptors): ratio of binding constants; for Ki: δ-selective radioligand 1.0 nM, Cheng-Prusoff, means of three determinations ± SEM
T3 construct: from tissue; host or cells: rat brain membranes (cerebellum removed), Sprague-Dawley
T3 sequence (P33533 whole entry): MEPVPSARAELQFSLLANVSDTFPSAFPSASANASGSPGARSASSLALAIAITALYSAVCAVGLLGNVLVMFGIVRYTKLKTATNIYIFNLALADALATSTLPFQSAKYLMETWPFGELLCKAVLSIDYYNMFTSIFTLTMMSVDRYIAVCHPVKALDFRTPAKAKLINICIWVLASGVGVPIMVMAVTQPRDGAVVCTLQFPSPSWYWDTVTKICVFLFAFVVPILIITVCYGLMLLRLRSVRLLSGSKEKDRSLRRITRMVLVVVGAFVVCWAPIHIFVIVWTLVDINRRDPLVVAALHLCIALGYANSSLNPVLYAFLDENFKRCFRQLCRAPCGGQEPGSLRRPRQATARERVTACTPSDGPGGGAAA
Excerpt: as §3

Structure (SMILES)	IC50 [1] [nM]	Ke in the MVD assay, antagonist potency against DPDPE [2]	Ke in the MVD assay, antagonist potency against [D-Ala2]deltorphin I [2]	Ke in the MVD assay, antagonist potency against [Leu5]enkephalin ([2]; δ agonist [Leu5]enkephalin)	Ki [3] [nM]	Ki^δ/Ki^μ (selectivity for μ versus δ receptors) [4]	Ki [4] [nM]
Cc1cc(O)cc(C)c1C[C@H](N)C(=O)N[C@@H]1CCCNC(=O)CN(C)C(=O)[C@H]2CCCN2C(=O)[C@H](Cc2ccc3ccccc3c2)NC1=O [Example 4, H-Dmt-c[-D-Orn-2-Nal-D-Pro-Sar-]] (H-[Dmt][dOrn][2Nal][dP][Sar]; lactam 2-C)	14.5	16.4					
CC(C)[C@H]1NC(=O)[C@H]2CCCN2C(=O)[C@H](Cc2ccc3ccccc3c2)NC(=O)[C@H](NC(=O)[C@@H](N)Cc2ccc(O)cc2)CCCNC1=O [Example 8, H-Tyr-c[-D-Orn-2-Nal-D-Pro-D-Val-]] (HELM PEPTIDE1{Y.[O=C([C@@H](CCCN[*:3])N[*:1])[*:2]].[O=C([C@H](Cc1ccc2ccccc2c1)N[*:1])[*:2]].[dP].[dV]}$PEPTIDE1,PEPTIDE1,2:R3-5:R2$$$V2.0)	536	20.9 ± 1.5	26.1 ± 2.8				
Cc1cc(O)cc(C)c1C[C@H](N)C(=O)N[C@@H]1CCCNC(=O)[C@@H](C)NC(=O)[C@H]2CCCN2C(=O)[C@H](Cc2ccc3ccccc3c2)NC1=O [Example 10, H-Dmt-c[-D-Orn-2-Nal-D-Pro-D-Ala-]] (H-[Dmt][dOrn][2Nal][dP][dA]; lactam 2-C)	10.4	0.577 ± 0.022	0.319 ± 0.091				
CC1(C)NC(=O)[C@H]2CCCN2C(=O)[C@H](Cc2ccc3ccccc3c2)NC(=O)[C@H](NC(=O)[C@@H](N)Cc2ccc(O)cc2)CCCNC1=O [Example 6, H-Tyr-c[-D-Orn-2-Nal-D-Pro-Aib-]] (HELM PEPTIDE1{Y.[O=C([C@@H](CCCN[*:3])N[*:1])[*:2]].[O=C([C@H](Cc1ccc2ccccc2c1)N[*:1])[*:2]].[dP].[Aib]}$PEPTIDE1,PEPTIDE1,2:R3-5:R2$$$V2.0)	451	31.6 ± 2.9	55.8 ± 3.8				
CN1CC(=O)NCCC[C@@H](NC(=O)[C@@H](N)Cc2ccc(O)cc2)C(=O)N[C@@H](Cc2ccc3ccccc3c2)C(=O)N2CCC[C@@H]2C1=O [Example 2, H-Tyr-c[-D-Orn-2-Nal-D-Pro-Sar-]] (HELM PEPTIDE1{Y.[O=C([C@@H](CCCN[*:3])N[*:1])[*:2]].[O=C([C@H](Cc1ccc2ccccc2c1)N[*:1])[*:2]].[dP].[Sar]}$PEPTIDE1,PEPTIDE1,2:R3-5:R2$$$V2.0)	159	11.2 ± 2.1	7.81 ± 1.90	17.0 ± 3.60	14.8 ± 0.7	0.163	2.41 ± 0.34
CN1C(=O)[C@H]2CCCN2C(=O)[C@H](Cc2ccc3ccccc3c2)NC(=O)[C@H](NC(=O)[C@@H](N)Cc2ccc(O)cc2)CCCNC(=O)C1(C)C [Example 7, H-Tyr-c[-D-Orn-2-Nal-D-Pro-MeAib-]] (H-Y[dOrn][2Nal][dP][NMeAib]; lactam 2-C)	228	370 ± 48	480 ± 84		29.2 ± 5.2	0.366	10.7 ± 5.5
